Data reported in US20100204247A1, “N-SUBSTITUTED OXINDOLINE DERIVATIVES AS CALCIUM CHANNEL BLOCKERS” (priority 2007, published 2010).
pIC50: −log10 of the molar value.

Biological target: T1, N-type calcium channel (Human Cav2.2 channels) (Homo sapiens, UniProt Q00975)
T1 construct: expressed in transfected cells
Test: N-type calcium channel (Cav2.2) antagonist assays: fluorescent potassium depolarization assay, IonWorks and PatchXpress/manual patch clamp electrophysiology
Assay type: cell-based
Details: in the aforementioned assays (Assay Examples 1-3); the specific assay is not stated; read-out: IC50, antagonizing the N-type calcium channel
Description: Fluorescent Assay for Cav2.2 Channels using Potassium Depolarization to Initiate Channel Opening
Human Cav2.2 channels were stably expressed in KEK293 cells along with alpha2-delta and beta subunits of voltage-gated calcium channels. An inwardly rectifying potassium channel (Kir2.3) was also expressed in these cells to allow more precise control of the cell membrane potential by extracellular potassium concentration. At low bath potassium concentration, the membrane potential is relatively negative, and is depolarized as the bath potassium concentration is raised. In this way, the bath potassium concentration can be used to regulate the voltage-dependent conformations of the channels. […]
Calcium influx through Cav2.2 channels is determined using a calcium-sensitive fluorescent dye in combination with a fluorescent plate reader. Fluorescent changes were measured with either a VIPR (Aurora Instruments) or FLIPR (Molecular Devices) plate reader.
• 1. […] Read cell plate on VIPR instrument, Excitation=480 nm, Emission=535 nm • 9. With VIPR continuously reading, add 0.1 mL (96-well plate) or 0.03 mL (384-well plate) of Depolarization Buffer, which is 2× the final assay concentration, to the cell plate. […]
Block of N-type calcium channels is evaluated utilizing the IonWorks HT 384 well automated patch clamp electrophysiology device. […]

T1 sequence (Q00975 whole entry): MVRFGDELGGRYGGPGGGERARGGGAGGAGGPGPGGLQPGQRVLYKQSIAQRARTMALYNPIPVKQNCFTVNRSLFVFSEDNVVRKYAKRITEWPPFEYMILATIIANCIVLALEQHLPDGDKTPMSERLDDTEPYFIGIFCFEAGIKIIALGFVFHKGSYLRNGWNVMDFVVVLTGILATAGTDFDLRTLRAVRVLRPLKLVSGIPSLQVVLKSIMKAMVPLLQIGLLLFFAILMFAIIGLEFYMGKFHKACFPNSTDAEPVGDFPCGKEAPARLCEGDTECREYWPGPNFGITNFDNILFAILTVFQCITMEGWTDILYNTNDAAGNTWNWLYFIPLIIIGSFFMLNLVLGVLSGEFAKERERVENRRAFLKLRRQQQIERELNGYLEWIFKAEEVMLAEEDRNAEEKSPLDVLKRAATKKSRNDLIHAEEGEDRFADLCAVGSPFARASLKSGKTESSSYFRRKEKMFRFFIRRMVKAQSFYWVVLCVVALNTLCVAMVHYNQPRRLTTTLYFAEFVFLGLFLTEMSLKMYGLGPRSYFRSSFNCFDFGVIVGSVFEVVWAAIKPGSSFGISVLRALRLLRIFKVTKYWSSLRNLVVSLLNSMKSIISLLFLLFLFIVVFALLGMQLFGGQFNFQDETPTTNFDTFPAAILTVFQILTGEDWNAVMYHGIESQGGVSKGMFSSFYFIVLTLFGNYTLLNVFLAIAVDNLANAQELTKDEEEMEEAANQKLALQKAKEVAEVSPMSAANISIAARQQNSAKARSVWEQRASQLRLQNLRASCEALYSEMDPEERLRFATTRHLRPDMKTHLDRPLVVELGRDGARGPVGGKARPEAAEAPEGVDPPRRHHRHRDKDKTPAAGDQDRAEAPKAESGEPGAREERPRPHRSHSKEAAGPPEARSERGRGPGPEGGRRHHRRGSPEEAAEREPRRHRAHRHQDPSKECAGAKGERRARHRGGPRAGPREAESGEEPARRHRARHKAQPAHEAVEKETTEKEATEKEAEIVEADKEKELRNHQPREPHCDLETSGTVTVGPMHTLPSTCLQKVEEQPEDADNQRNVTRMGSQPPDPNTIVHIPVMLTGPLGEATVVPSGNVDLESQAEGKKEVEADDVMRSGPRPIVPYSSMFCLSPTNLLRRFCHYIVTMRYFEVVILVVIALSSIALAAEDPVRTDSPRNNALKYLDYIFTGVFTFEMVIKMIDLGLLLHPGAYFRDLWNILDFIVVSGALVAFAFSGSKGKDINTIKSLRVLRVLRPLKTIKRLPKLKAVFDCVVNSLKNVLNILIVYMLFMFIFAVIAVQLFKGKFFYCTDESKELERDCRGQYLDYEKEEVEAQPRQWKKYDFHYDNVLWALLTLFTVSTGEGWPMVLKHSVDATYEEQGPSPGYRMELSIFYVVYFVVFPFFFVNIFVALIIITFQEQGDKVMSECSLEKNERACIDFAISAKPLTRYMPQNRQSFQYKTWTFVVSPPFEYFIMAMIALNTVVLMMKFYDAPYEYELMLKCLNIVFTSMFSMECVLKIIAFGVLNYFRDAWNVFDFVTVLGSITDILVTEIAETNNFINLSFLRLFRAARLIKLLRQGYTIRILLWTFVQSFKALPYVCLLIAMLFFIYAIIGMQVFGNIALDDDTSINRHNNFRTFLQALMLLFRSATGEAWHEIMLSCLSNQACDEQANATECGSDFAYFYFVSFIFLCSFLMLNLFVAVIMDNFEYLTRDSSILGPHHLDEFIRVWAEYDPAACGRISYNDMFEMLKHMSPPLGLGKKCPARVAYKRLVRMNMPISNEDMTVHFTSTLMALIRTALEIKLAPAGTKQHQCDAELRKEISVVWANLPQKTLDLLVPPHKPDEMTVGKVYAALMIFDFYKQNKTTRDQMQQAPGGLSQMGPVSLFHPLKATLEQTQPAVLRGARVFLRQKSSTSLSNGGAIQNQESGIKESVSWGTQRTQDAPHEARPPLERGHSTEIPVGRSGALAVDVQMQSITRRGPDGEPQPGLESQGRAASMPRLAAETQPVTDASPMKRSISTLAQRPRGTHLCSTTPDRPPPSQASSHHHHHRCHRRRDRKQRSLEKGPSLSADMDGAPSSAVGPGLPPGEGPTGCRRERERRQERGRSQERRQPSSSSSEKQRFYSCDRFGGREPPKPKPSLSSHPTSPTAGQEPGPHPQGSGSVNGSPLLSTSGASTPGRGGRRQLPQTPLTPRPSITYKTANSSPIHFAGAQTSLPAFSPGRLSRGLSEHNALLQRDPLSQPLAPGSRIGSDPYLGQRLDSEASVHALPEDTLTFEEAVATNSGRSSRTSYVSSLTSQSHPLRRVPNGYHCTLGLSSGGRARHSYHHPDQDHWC

pIC50	SMILES
6.23	CC1(Cc2cc(F)cc(F)c2)C(=O)Nc2ccc(-c3ccc(F)cc3)cc21 (centres unmarked) [Example 12, 3-(3,5-difluorobenzyl)-5-(4-fluorophenyl)-3-methyl-1,3-dihydro-2H-indol-2-one]
6.85	CC1(Cc2cncnc2)C(=O)Nc2ccc(-c3cccc(OCC(F)(F)F)c3)cc21 (centres unmarked) [Example 15, 3-methyl-3-(pyrimidin-5-ylmethyl)-5-[3-(2,2,2-trifluoroethoxy)phenyl]-1,3-dihydro-2H-indol-2-one]
